# Earlier results as cited in patent US20030129629A1, “Methods and compositions for the identification, assessment, prevention, and therapy of human cancers” (Millennium Pharmaceuticals, Inc., priority 2000, published 2003).
# Where two headings read alike, the source gives them in different places.
# System: 60 cancer cell lines (NCI 60 cancer cell line series)
# Details: cited from earlier work
smiles,measurement,setting,value
CC[C@@]1(O)C(=O)OCc2c1cc1n(c2=O)Cc2cc3c(CN(C)C)c(O)ccc3nc2-1 [Topotecan],−Log (GI50),CNS SF-268 CL12014,7.7
same,−Log (GI50),Leukemia CCRF-CEM(I) CL7003,7.9
same,−Log (GI50),Leukemia MOLT-4 CL7006,7.9
same,−Log (GI50),NSCLC HOP-62 CL1026,7.9
same,−Log (GI50),NSCLC NCI-H23(I) CL1001,7.4
same,−Log (GI50),NSCLC NCI-H460 CL1021,7.7
